Laboratory results from US20090233796A1, “HERBICIDAL COMPOSITION” (SYNGENTA CROP PROTECTION, INC., priority 2004, published 2009).

How the values were obtained:
Type in all cases: in vivo
CYNODON DACTYLON = test: Compound (A) with glyphosate, weed plots; conditions: 840 g/ha; 82 DAA; No. 2.1
Excerpt: (§1) The compositions were formulated as an emulsifyable concentrate (EC).
(§2) The results in the table under each application are the percentage of the plants that were killed.

DIGITARIA SANGUINALIS [1] = test: Compound (A) with glyphosate, weed plots; conditions: 840 g/ha; 52 DAA; No. 2.2
Excerpt: as §1, §2

HORDEUM PUSILLUM = test: Compound (A) with glyphosate, weed plots; conditions: 840 g/ha; 13 DAA; No. 2.6
Excerpt: as §1, §2

ABUTILON THEOPHRASTI [2] = test: Compound (A) with nicosulfuron, weed plots; conditions: 35 g/ha; 27 DAA; No. 3.13
Procedure: (§3) In these tests, various weeds were treated with nicosulfuron alone at a rate equivalent to 35 g per hectare, […] and Compound (A) at rates equivalent to the sum of these. The compositions were formulated as an emulsifyable concentrate (EC).
as §2

AMBROSIA TRIFIDA [3] = test: Compound (A) with nicosulfuron, weed plots; conditions: 35 g/ha; 28 DAA; No. 3.15
Procedure: as §3, §2

BRACHIARIA PLATYPHYLLA = test: Compound (A) with nicosulfuron, weed plots; conditions: 35 g/ha
Procedure: as §3, §2

CYPERUS ESCULENTUS = test: Compound (A) with nicosulfuron, weed plots; conditions: 35 g/ha
Procedure: as §3, §2

C[…]. = test: Compound (A) with nicosulfuron, weed plots; conditions: 35 g/ha; 5 DAA; No. 3.8
Procedure: as §3, §2

DIGITARIA SANGUINALIS [4] = test: Compound (A) with nicosulfuron, weed plots; conditions: 35 g/ha
Procedure: as §3, §2

IPOMOEA SP. [5] = test: Compound (A) with nicosulfuron, weed plots; conditions: 35 g/ha; 5 DAA; No. 3.10
Procedure: as §3, §2

SESBANIA EXALTATA [6] = test: Compound (A) with nicosulfuron, weed plots; conditions: 35 g/ha
Procedure: as §3, §2

SETARIA SP. = test: Compound (A) with nicosulfuron, weed plots; conditions: 35 g/ha; 21 DAA; No. 3.4
Procedure: as §3, §2

SETARIA VIRIDIS = test: Compound (A) with nicosulfuron, weed plots; conditions: 35 g/ha; 4 DAA; No. 3.11
Procedure: as §3, §2

[…] = Compound (A) with nicosulfuron, weed plots; conditions: 35 g/ha; 58 DAA; No. 3.12
Procedure: as §3, §2

COMMELINA SP. = test: Compound (A) with nicosulfuron, weed plots; conditions: 35 g/ha
Excerpt: In these tests, […] and Compound (A) at rates equivalent to the sum of these. The compositions were formulated as an emulsifyable concentrate (EC).
as §2

Euphorbia [7] = test: Compound (A) with primisulfuron, weed plots; conditions: 45 DAA, Trial 3.20
Excerpt: (§4) In these tests, […] and Compound (A) at rates equivalent to the sum of these. The compositions were formulated as an emulsifiable concentrate (EC).
(§5) The results in the tables under each application are the percentage of the plants that were killed.

Ipomoea = test: Compound (A) with primisulfuron, weed plots; conditions: 44 DAA, Trial 3.21
Procedure: In these tests, various weeds were treated with primisulfuron alone at a rate equivalent to 35 g per hectare, […] and Compound (A) at rates equivalent to the sum of these. The compositions were formulated as an emulsifiable concentrate (EC).
as §5

Corn = test: Compound (A) with prosulfuron, weed plots; conditions: 13 DAA, No. 3.26
Excerpt: as §4, §5

Galium = test: Compound (A) with prosulfuron, weed plots; conditions: 13 DAA, No. 3.24
Excerpt: as §4, §5

Brachiaria = test: Compound (A) with prosulfuron, weed plots; conditions: 13 DAA, No. 3.27
Procedure: (§6) In these tests, various weeds were treated with prosulfinuron alone at a rate equivalent to 35 g per hectare, […] and Compound (A) at rates equivalent to the sum of these. The compositions were formulated as an emulsifiable concentrate (EC).
as §5

Euphorbia [8] = test: Compound (A) with prosulfuron, weed plots; conditions: 13 DAA, No. 3.28
Procedure: as §6, §5

Rice = test: Compound (A) with prosulfuron, weed plots; conditions: 13 DAA, No. 3.29
Procedure: as §6, §5

Veronica = test: Compound (A) with prosulfuron, weed plots; conditions: 13 DAA, No. 3.25
Procedure: as §6, §5

Wheat = test: Compound (A) with prosulfuron, weed plots; conditions: 13 DAA, No. 3.30
Procedure: as §6, §5

ABUTILON THEOPHRASTI [9] = test: Compound (A) with S-metolachlor, weed plots; conditions: 1420 g/ha
Excerpt: […] The compositions were formulated as an emulsifyable concentrate (EC).
as §2

AMBROSIA ARTEMISIIFOLIA = test: Compound (A) with S-metolachlor, weed plots; conditions: 1420 g/ha
Procedure: (§7) In these tests, various weeds were treated with S-metolachlor (SMOC) alone at an application rate equivalent to 1420 g per hectare, Compound (A) alone at rates equivalent to 20 g per hectare and […] and with mixtures of S-metolachlor and the Compound (A) at rates equivalent to the sum of these. The compositions were formulated as an emulsifyable concentrate (EC).
as §2

AMBROSIA TRIFIDA [10] = test: Compound (A) with S-metolachlor, weed plots; conditions: 1420 g/ha
Procedure: as §7, §2

C[…] = test: Compound (A) with S-metolachlor, weed plots; conditions: 1420 g/ha
Procedure: as §7, §2

E[…]-GALLI = test: Compound (A) with S-metolachlor, weed plots; conditions: 1420 g/ha; 28 DAA; Trial 4.1
Procedure: as §7, §2

IPOMOEA SP. [11] = test: Compound (A) with S-metolachlor, weed plots; conditions: 1420 g/ha
Procedure: as §7, §2

POLYGONUM PENSYLVANICUM = test: Compound (A) with S-metolachlor, weed plots; conditions: 1420 g/ha; 56 DAA; Trial 4.14
Procedure: as §7, §2

SESBANIA EXALTATA [12] = test: Compound (A) with S-metolachlor, weed plots; conditions: 1420 g/ha; 56 DAA; Trial 4.2
Procedure: as §7, §2

XANTHIUM STRUMARIUM = test: Compound (A) with S-metolachlor, weed plots; conditions: 1420 g/ha
Procedure: as §7, §2

Cyperus = test: Compound (A) with sulcotrione, weed plots; conditions: 14 DAA, Trial 5.1
Procedure: In these tests, various weeds were treated with sulcotrione alone at an application rate equivalent to 1420 g per hectare, […] and Compound (A) at rates equivalent to the sum of these. The compositions were formulated as an emulsifyable concentrate (EC).
as §2

O=C(O)CNCP(=O)(O)O [Glyphosate, glyphosate, reference compound]
percentage of the plants that were killed (CYNODON DACTYLON): 0%
percentage of the plants that were killed (DIGITARIA SANGUINALIS [1]): 0%
percentage of the plants that were killed (HORDEUM PUSILLUM): 30%

COc1cc(OC)nc(NC(=O)NS(=O)(=O)c2ncccc2C(=O)N(C)C)n1 [Nicosulfuron, nicosulfuron, reference compound]
percentage of the plants that were killed (ABUTILON THEOPHRASTI [2]): 50%
percentage of the plants that were killed (AMBROSIA TRIFIDA [3]): 0%
percentage of the plants that were killed (BRACHIARIA PLATYPHYLLA; 24 DAA, No. 3.16): 35%
percentage of the plants that were killed (BRACHIARIA PLATYPHYLLA; 30 DAA, No. 3.17): 30%
percentage of the plants that were killed (CYPERUS ESCULENTUS; 7 DAA, No. 3.7): 0%
percentage of the plants that were killed (CYPERUS ESCULENTUS; 12 DAA, No. 3.9): 0%
percentage of the plants that were killed (C[…].): 50%
percentage of the plants that were killed (DIGITARIA SANGUINALIS [4]; 4 DAA, No. 3.6): 10%
percentage of the plants that were killed (DIGITARIA SANGUINALIS [4]; 5 DAA, No. 3.14): 0%
percentage of the plants that were killed (DIGITARIA SANGUINALIS [4]; 21 DAA, No. 3.5): 70%
percentage of the plants that were killed (IPOMOEA SP. [5]): 0%
percentage of the plants that were killed (SESBANIA EXALTATA [6]; 44 DAA, No. 3.3): 10%
percentage of the plants that were killed (SESBANIA EXALTATA [6]; 45 DAA, No. 3.2): 0%
percentage of the plants that were killed (SETARIA SP.): 70%
percentage of the plants that were killed (SETARIA VIRIDIS): 20%
percentage of the plants that were killed ([…]): 0%
percentage of the plants that were killed (COMMELINA SP.; 10 DAA, No. 3.18): 0%
percentage of the plants that were killed (COMMELINA SP.; 17 DAA, No. 3.19): 0%

O=C(Nc1nc(OC(F)F)cc(OC(F)F)n1)NS(=O)(=O)c1ccccc1C(=O)O [Primisulfuron, primisulfuron, reference compound]
percentage of the plants that were killed (Euphorbia [7]; 7.5 g/ha): 10%
percentage of the plants that were killed (Euphorbia [7]; 15 g/ha): 30%
percentage of the plants that were killed (Euphorbia [7]; 30 g/ha): 50%
percentage of the plants that were killed (Ipomoea; 7.5 g/ha): 0%
percentage of the plants that were killed (Ipomoea; 15 g/ha): 20%
percentage of the plants that were killed (Ipomoea; 30 g/ha): 25%

COc1nc(C)nc(NC(=O)NS(=O)(=O)c2ccccc2CCC(F)(F)F)n1 [Prosulfuron, prosulfuron, reference compound]
percentage of the plants that were killed (Corn; 7.5 g/ha): 0%
percentage of the plants that were killed (Corn; 15 g/ha): 0%
percentage of the plants that were killed (Corn; 30 g/ha): 0%
percentage of the plants that were killed (Galium; 7.5 g/ha): 30%
percentage of the plants that were killed (Galium; 15 g/ha): 40%
percentage of the plants that were killed (Galium; 30 g/ha): 70%
percentage of the plants that were killed (Brachiaria; 7.5 g/ha): 0%
percentage of the plants that were killed (Brachiaria; 15 g/ha): 0%
percentage of the plants that were killed (Brachiaria; 30 g/ha): 0%
percentage of the plants that were killed (Euphorbia [8]; 7.5 g/ha): 20%
percentage of the plants that were killed (Euphorbia [8]; 15 g/ha): 20%
percentage of the plants that were killed (Euphorbia [8]; 30 g/ha): 30%
percentage of the plants that were killed (Rice; 7.5 g/ha): 0%
percentage of the plants that were killed (Rice; 15 g/ha): 0%
percentage of the plants that were killed (Rice; 30 g/ha): 0%
percentage of the plants that were killed (Veronica; 7.5 g/ha): 0%
percentage of the plants that were killed (Veronica; 15 g/ha): 0%
percentage of the plants that were killed (Veronica; 30 g/ha): 15%
percentage of the plants that were killed (Wheat; 7.5 g/ha): 0%
percentage of the plants that were killed (Wheat; 15 g/ha): 0%
percentage of the plants that were killed (Wheat; 30 g/ha): 0%

CCc1cccc(C)c1N(C(=O)CCl)[C@@H](C)COC [SMOC, S-metolachlor, reference compound]
percentage of the plants that were killed (ABUTILON THEOPHRASTI [9]; 15 DAA, Trial 4.12): 65%
percentage of the plants that were killed (ABUTILON THEOPHRASTI [9]; 23 DAA, Trial 4.3): 13%
percentage of the plants that were killed (ABUTILON THEOPHRASTI [9]; 38 DAA, Trial 4.4): 0%
percentage of the plants that were killed (ABUTILON THEOPHRASTI [9]; 56 DAA, Trial 4.13): 0%
percentage of the plants that were killed (AMBROSIA ARTEMISIIFOLIA; 25 DAA, Trial 4.7): 30%
percentage of the plants that were killed (AMBROSIA ARTEMISIIFOLIA; 49 DAA, Trial 4.8): 30%
percentage of the plants that were killed (AMBROSIA TRIFIDA [10]; 8 DAA, Trial 4.16): 25%
percentage of the plants that were killed (AMBROSIA TRIFIDA [10]; 42 DAA, Trial 4.15): 25%
percentage of the plants that were killed (C[…]; 26 DAA, Trial 4.5): 0%
percentage of the plants that were killed (C[…]; 54 DAA, Trial 4.6): 0%
percentage of the plants that were killed (C[…]; 56 DAA, Trial 4.11): 0%
percentage of the plants that were killed (E[…]-GALLI): 75%
percentage of the plants that were killed (IPOMOEA SP. [11]; 25 DAA, Trial 4.9): 0%
percentage of the plants that were killed (IPOMOEA SP. [11]; 49 DAA, Trial 4.10): 0%
percentage of the plants that were killed (POLYGONUM PENSYLVANICUM): 0%
percentage of the plants that were killed (SESBANIA EXALTATA [12]): 20%
percentage of the plants that were killed (XANTHIUM STRUMARIUM; 26 DAA, Trial 4.17): 38%
percentage of the plants that were killed (XANTHIUM STRUMARIUM; 42 DAA, Trial 4.18): 30%

CS(=O)(=O)c1ccc(C(=O)C2C(=O)CCCC2=O)c(Cl)c1 [Sulcotrione, sulcotrione]
percentage of the plants that were killed (Cyperus; 50 g/ha): 25%
percentage of the plants that were killed (Cyperus; 100 g/ha): 30%
percentage of the plants that were killed (Cyperus; 200 g/ha): 30%
